Test results published in patent US9302999B2, “Substituted triazoles as herbicides” (E. I. DU PONT DE NEMOURS AND COMPANY, priority 2012, dated 2016).

Experiments:
Waterhemp = experiment: Test C postemergence: waterhemp; assay type: in vivo, Amaranthus rudis
Text: (§1) Seeds of plant species selected from blackgrass (Alopecurus myosuroides), bromegrass, downy (downy bromegrass, Bromus tectorum), foxtail, green (green foxtail, Setaria viridis), ryegrass, Italian (Italian ryegrass, Lolium multiflorum), winter wheat (Triticum aestivum), wild oat (Avena fatua), galium (catchweed bedstraw, Galium aparine), bermudagrass (Cynodon dactylon), surinam grass (Brachiaria decumbens), cocklebur (common cocklebur, Xanthium strumarium), corn (Zea mays), large crabgrass (Digitaria sanguinalis), woolly cupgrass (Eriochloa villosa), foxtail, giant (giant foxtail, Setaria faberii), goosegrass (Eleusine indica), johnsongrass (Sorghum halepense), kochia (Kochia scoparia), lambsquarters (Chenopodium album), morningglory (Ipomoea coccinea), nightshade (eastern black nightshade, Solanum ptycanthum), nutsedge, yellow (yellow nutsedge, Cyperus esculentus), pigweed (Amaranthus retroflexus), ragweed (common ragweed, Ambrosia elation), soybean (Glycine max), common (oilseed) sunflower (Helianthus annuus), Russian thistle (Salsola kali) and velvetleaf (Abutilon theophrasti) were planted into a blend of loam soil and sand and treated preemergence with test chemicals formulated in a non-phytotoxic solvent mixture which included a surfactant.
(§2) At the same time, plants selected from these crop and weed species and also barley (winter barley, Hordeum vulgare), canarygrass (Phalaris minor), chickweed (common chickweed, Stellaria media) windgrass (Apera spica-venti) and deadnettle (henbit deadnettle, Lamium amplexicaule) were planted in pots containing Redi-Earth® planting medium (Scotts Company, 14111 Scottslawn Road, Marysville, Ohio 43041) comprising spaghnum peat moss, vermiculite, wetting agent and starter nutrients and treated with postemergence applications of test chemicals formulated in the same manner. Plants ranged in height from 2 to 18 cm (1- to 4-leaf stage) for postemergence treatments.
(§3) Treated plants and controls were maintained in a greenhouse for 13 to 15 days, after which time all species were compared to controls and visually evaluated. Plant response ratings, summarized in Table C, are based on a scale of 0 to 100 where 0 is no effect and 100 is complete control. A dash (-) response means no test result.

Oilseed Rape = experiment: Test C pre-/postemergence: oilseed rape; assay type: in vivo
Text: as §1, §2, §3

[1] = system: canarygrass (Phalaris minor); experiment: Test C postemergence: canarygrass; assay type: in vivo
Procedure, shortened: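 Visual ratings of 0 (no effect) to 100 (complete control) were made against controls 13-15 days after a postemergence spray, with plants kept in a greenhouse. Plants were 2-18 cm tall (1- to 4-leaf stage) in Redi-Earth peat/vermiculite medium at treatment.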

[2] = system: deadnettle (henbit deadnettle, Lamium amplexicaule); experiment: Test C postemergence: deadnettle; assay type: in vivo
Text: as §2, §3

[3] = system: ryegrass, Italian (Italian ryegrass, Lolium multiflorum); experiment: Test D pre-/postemergence: ryegrass, Italian; assay type: in vivo
Text: Seeds of plant species selected from bluegrass (annual bluegrass, Poa annua), blackgrass (Alopecurus myosuroides), canarygrass (Phalaris minor), chickweed (common chickweed, Stellaria media), galium (catchweed bedstraw, Galium aparine), bromegrass, downy (downy bromegrass, Bromus tectorum), field poppy (Papaver rhoeas), field violet (Viola arvensis), foxtail, green (green foxtail, Setaria viridis), deadnettle (henbit deadnettle, Lamium amplexicaule), ryegrass, Italian (Italian ryegrass, Lolium multiflorum), kochia (Kochia scoparia), lambsquarters (Chenopodium album), oilseed rape (Brassica napus), pigweed (Amaranthus retroflexus), Russian thistle (Salsola iberica), chamomile (scentless chamomile, Matricaria inodora), speedwell (bird's-eye speedwell, Veronica persica), barley, spring (spring barley, Hordeum vulgare), wheat, spring (spring wheat, Triticum aestivum), buckwheat, wild (wild buckwheat, Polygonum convolvulus), mustard, wild (wild mustard, Sinapis arvensis), oat, wild (wild oat, Avena fatua), radish, wild (wild radish, Raphanus raphanistrum), windgrass (Apera spica-venti), barley, winter (winter barley, Hordeum vulgare), and wheat, winter (winter wheat, Triticum aestivum) were planted into a silt loam soil and treated preemergence with test chemicals formulated in a non-phytotoxic solvent mixture which included a surfactant. At the same time, these same crop and weed species were planted in pots containing the planting medium comprising spaghnum peat moss, vermiculite, wetting agent and starter nutrients and treated with postemergence applications of the test chemicals formulated in the same manner. Plants ranged in height from 2 to 18 cm (1- to 4-leaf stage).
as §3, with “controlled growth environment” for “greenhouse”, “14” for “13”, “21 days” for “15 days,”, “D,” for “C,”

[4] = system: barnyardgrass (Echinochloa crus-galli); experiment: Test F pre-/postemergence: barnyardgrass; assay type: in vivo
Text: Seeds of plant species selected from corn (Zea mays), soybean (Glycine max), velvetleaf (Abutilon theophrasti), lambsquarters (Chenopodium album), poinsettia, wild (wild poinsettia, Euphorbia heterophylla), pigweed, palmer (palmer pigweed, Amaranthus palmeri), waterhemp (common waterhemp, Amaranthus rudis), surinam grass (Brachiaria decumbens), crabgrass, Brazil (Brazilian crabgrass, Digitaria horizontalis), panicum, fall (fall panicum Panicum dichotomiflorum), crabgrass, large (large crabgrass, Digitaria sanguinalis), foxtail, giant (giant foxtail, Setaria faberii), foxtail, green (green foxtail Setaria viridis), goosegrass (Eleusine indica), ragweed (common ragweed, Ambrosia elatior), barnyardgrass (Echinochloa crus-galli), sandbur (southern sandbur, Cenchrus echinatus), arrowleaf sida (Sida rhombifolia), ryegrass, Italian (Italian ryegrass, Lolium multiflorum), dayflower, VA (Virginia (VA) dayflower, Commelina virginica), field bindweed (Convolvulus arvensis), cocklebur (common cocklebur, Xanthium strumarium), morningglory (Ipomoea coccinea), nightshade (eastern black nightshade, Solanum ptycanthum), kochia (Kochia scoparia), nutsedge, yellow (yellow nutsedge, Cyperus esculentus), johnsongrass (Sorghum halepense), smartweed (ladysthumb smartweed, Polygonum persicaria), and beggarticks (hairy beggarticks, Bidens pilosa), were planted into a silt loam soil and treated preemergence with test chemicals formulated in a non-phytotoxic solvent mixture which included a surfactant. At the same time, plants selected from these crop and weed species and also pigweed (Amaranthus retroflexus), waterhemp_RES1 (ALS/Triazine resistant common waterhemp, Amaranthus rudis) and waterhemp_RES2 (ALS/HPPD resistant common waterhemp, Amaranthus rudis) were planted in pots containing a planting medium comprising spaghnum peat moss, vermiculite, wetting agent and starter nutrients treated with postemergence applications of some of the test chemicals formulated in the same manner. Plants ranged in height from 2 to 18 cm for postemergence treatments (1- to 4-leaf stage).
as §3, with “14” for “13”, “21” for “15”, “E,” for “C,”

[5] = 125 g ai/ha, scale 0 to 100, 0 no effect, 100 complete control
[6] = Preemergence, 250 g ai/ha, scale 0 to 100, 0 no effect, 100 complete control
[7] = 250 g ai/ha, scale 0 to 100 (0 no effect, 100 complete control)
[8] = Postemergence, 31 g ai/ha, scale 0 to 100 (0 no effect, 100 complete control)
[9] = 31 g ai/ha, scale 0 to 100 (0 no effect, 100 complete control)
[10] = 62 g ai/ha, scale 0 to 100 (0 no effect, 100 complete control)
[11] = Postemergence, 16 g ai/ha, scale 0 to 100
[12] = Preemergence, 16 g ai/ha, scale 0 to 100, 0 no effect, 100 complete control
[13] = Preemergence, 31 g ai/ha, scale 0 to 100, 0 no effect, 100 complete control
[14] = Preemergence, 62 g ai/ha, scale 0 to 100
[15] = Preemergence, 125 g ai/ha, scale 0 to 100

SMILES: CCOc1nn(-c2ccc(C(F)(F)F)cc2)nc1Cc1ccnc(C(F)(F)F)c1 [Compound 164, 4-[[5-ethoxy-2-[4-(trifluoromethyl)phenyl]-2H-1,2,3-triazol-4-yl]methyl]-2-(trifluoromethyl)pyridine]
- Plant response rating, Waterhemp (Waterhemp; [5]): 65
- Plant response rating, Oilseed Rape (Oilseed Rape; [6]): 30

SMILES: CCCc1nn(-c2ccc(F)cc2)nc1Oc1ccnc(C(F)(F)F)c1 [Compound 168]
- Plant response rating, Waterhemp (Waterhemp; [5]): 95
- Plant response rating, Waterhemp (Waterhemp; [7]): 95
- Plant response rating, Oilseed Rape (Oilseed Rape; [8]): 40
- Plant response rating, Oilseed Rape (Oilseed Rape; [6]): 100

SMILES: CCCc1nn(-c2ccc(C(F)(F)F)cc2)nc1Oc1ccnc(C(F)(F)F)c1 [Compound 170]
- Plant response rating, Waterhemp (Waterhemp; [5]): 98
- Plant response rating, Waterhemp (Waterhemp; [7]): 100
- Plant response rating, Oilseed Rape (Oilseed Rape; [8]): 30
- Plant response rating, Oilseed Rape (Oilseed Rape; [6]): 100

SMILES: CCCc1nn(-c2ccc(F)cc2F)nc1Oc1ccnc(C(F)(F)F)c1 [Compound 179]
- Plant response rating, Waterhemp (Waterhemp; [5]): 95
- Plant response rating, Waterhemp (Waterhemp; [7]): 95
- Plant response rating, Oilseed Rape (Oilseed Rape; [8]): 30
- Plant response rating, Oilseed Rape (Oilseed Rape; [6]): 100

SMILES: CCOc1nn(-c2ccc(F)cc2)nc1Cc1ccnc(C(F)(F)F)c1 [Compound 196, 4-[[5-ethoxy-2-(4-fluorophenyl)-2H-1,2,3-triazol-4-yl]methyl]-2-(trifluoromethyl)pyridine]
- Plant response rating, Canarygrass [1, 9]: 80
- Plant response rating, Canarygrass [1, 10]: 90
- Plant response rating, Canarygrass [1, 5]: 90
- Plant response rating, Canarygrass ([1]; 250 g ai/ha, scale 0 to 100): 90
- Plant response rating, Deadnettle [2, 9]: 100
- Plant response rating, Deadnettle [2, 10]: 100
- Plant response rating, Deadnettle [2, 5]: 100
- Plant response rating, Deadnettle ([2]; 250 g ai/ha, scale 0 to 100): 100
- Plant response rating: Ryegrass, Italian [3, 8]: 15
- Plant response rating: Ryegrass, Italian ([3]; Postemergence, 62 g ai/ha, scale 0 to 100 (0 no effect, 100 complete control)): 30
- Plant response rating: Ryegrass, Italian ([3]; Postemergence, 125 g ai/ha, scale 0 to 100, 0 no effect, 100 complete control): 75
- Plant response rating, Ryegrass, Italian [3, 11]: 5
- Plant response rating, Ryegrass, Italian [3, 12]: 5
- Plant response rating, Ryegrass, Italian [3, 13]: 10
- Plant response rating, Ryegrass, Italian [3, 14]: 60
- Plant response rating, Ryegrass, Italian [3, 15]: 100
- Plant response rating, Barnyardgrass ([4]; Postemergence, 8 g ai/ha, scale 0 to 100): 30
- Plant response rating, Barnyardgrass [4, 11]: 40
- Plant response rating, Barnyardgrass ([4]; Postemergence, 31 g ai/ha, scale 0 to 100): 60
- Plant response rating, Barnyardgrass ([4]; Postemergence, 62 g ai/ha, scale 0 to 100): 60
- Plant response rating, Barnyardgrass ([4]; Postemergence, 125 g ai/ha, scale 0 to 100): 90
- Plant response rating, Barnyardgrass ([4]; Preemergence, 8 g ai/ha, scale 0 to 100, 0 no effect, 100 complete control): 0
- Plant response rating, Barnyardgrass [4, 12]: 25
- Plant response rating, Barnyardgrass [4, 13]: 40
- Plant response rating, Barnyardgrass [4, 14]: 70
- Plant response rating, Barnyardgrass [4, 15]: 100
